Test results taken from US5246929A, “Naphtho thiazine (or oxaline) derivatives and preparations thereof” (Tanabe Seiyaku Co., Ltd., priority 1990, dated 1993).
Structures can show the parent of a compound that is named as a salt.

Experiments:
Format in all cases: in vivo
[1] = system: cerebral anoxia induced by potassium cyanide; assay: Activity for protecting cerebral anoxia induced by potassium cyanide (survival time); conditions: 10 mg/kg orally, mice; potassium cyanide 2.4 mg/kg tail vein one hour later
mice = assay: Acute oral toxicity in mice; conditions: 500 mg/kg orally, 7 days
Excerpt: The compounds (I) of this invention can inhibit the calcium entrance into the cerebral synaptosome and show excellent central calcium antagonistic activity and/or excellent calcium antagonistic activity in cerebral blood vessel, and can be used for the treatment and prophylaxis of cerebral diseases due to cerebral blood flow disorder at acute and chronic periods, for example, subarachnoid hemorrhage, cerebral infarction, etc. The compounds (I) of this invention have also an activity for protecting cerebral neurocyte. For example, when 2-(4-chlorophenyl)-4-(diethylamino)acetyl-3,4-dihydro-2H-1,4-benzothiazinewas intraperitoneally administered to evanescent cerebral ischemic rats with ligating four vessels in a dose of 1.5 mg/kg twice a day for four days, it increased the number of normal pyramidal cells at hippocampul CA1 region in about 90% in comparison with the non-medicated group. Accordingly, the compounds (I) of this invention can effectively be used for the prophylaxis, treatment and amelioration of sequelae of cerebral neurocyte dyscrasia, for example, disturbances of consciousness (e.g. somnolenz, sopor, coma, stupor, clouding of consciousness, etc.), motor paralysis (e.g. parkinsonism, etc.), cerebral neuropathy (e.g. dysuria, etc.), speech and language disorders (e.g. articulation disorders, aphasia, semantic aphasia, etc.), sensitive disorders (e.g. pain, sysesthesia, heat sensibility disorder, etc.), psychological disorders (e.g. dementia, hallucination, delusion, delirium, poriomania, melancholia, neurosis, emotional incontinence, etc.), and the like, and further the prophylaxis of palindromia and also the prophylaxis of exacerbation and progression of the symptoms. […] In addition, the compounds (I) of this invention have low toxicity and has high safety.

[2] = system: normal pyramidal cells at hippocampul CA1 region; assay: Number of normal pyramidal cells in evanescent cerebral ischemic rats with ligating four vessels; conditions: 1.5 mg/kg intraperitoneally twice a day for four days, four vessels ligated
Excerpt: The compounds (I) of this invention can inhibit the calcium entrance into the cerebral synaptosome and show excellent central calcium antagonistic activity and/or excellent calcium antagonistic activity in cerebral blood vessel, and can be used for the treatment and prophylaxis of cerebral diseases due to cerebral blood flow disorder at acute and chronic periods, for example, subarachnoid hemorrhage, cerebral infarction, etc. The compounds (I) of this invention have also an activity for protecting cerebral neurocyte. For example, when 2-(4-chlorophenyl)-4-(diethylamino)acetyl-3,4-dihydro-2H-1,4-benzothiazinewas intraperitoneally administered to evanescent cerebral ischemic rats with ligating four vessels in a dose of 1.5 mg/kg twice a day for four days, it increased the number of normal pyramidal cells at hippocampul CA1 region in about 90% in comparison with the non-medicated group. […]

Molecule: 4-(dimethylamino)acetyl-2-(4-fluorophenyl)-3,4-dihydro-2H-1,4-benzothiazine oxalate [Example 1]
- Prolonging rate of survival time [1]: 62%

Molecule: CN(C)CCCN1C(=O)C(c2cccc(C(F)(F)F)c2)Sc2ccc3ccccc3c21.O=C(O)C(=O)O (centres unmarked) [1-[3-(dimethylamino)propyl]-3-(3-trifluoromethylphenyl)-1H-naphtho[2,1-b][1,4]thiazin-2(3H)-one oxalate]
- mortality of mice (mice): no mouse died even after 7 days

Molecule: CCN(CC)CC(=O)N1CC(c2ccc(Cl)cc2)Sc2ccccc21 (centres unmarked) [2-(4-chlorophenyl)-4-(diethylamino)acetyl-3,4-dihydro-2H-1,4-benzothiazine]
- increase of the number of normal pyramidal cells at hippocampul CA1 region in comparison with the non-medicated group [2]: about 90%

Molecule: CCN(CC)CC(=O)N1CC(c2ccc(Cl)cc2)Sc2ccccc21 (centres unmarked) [2-(4-chlorophenyl)-4-(diethylamino)acetyl-3,4-dihydro-2H-1,4-benzothiazineoxalate]
- mortality of mice (mice): no mouse died even after 7 days

Molecule: CCN(CC)CC(=O)N1CC(c2ccc(Cl)cc2)Sc2ccc3ccccc3c21 (centres unmarked) [3-(4-chlorophenyl)-1-(diethylamino)acetyl-2,3-dihydro-1H-naphtho[2,1-b][1,4]thiazine oxalate]
- mortality of mice (mice): no mouse died even after 7 days
